In patent publication US11696917B2, “Agent enhancing antitumor effect using pyrazolo[3,4-d]pyrimidine compound” (TAIHO PHARMACEUTICAL CO., LTD., priority 2017, dated 2023):

How the values were obtained:
[1] = system: Human stomach cancer cells 4-1st; assay: Combination of Compound 1 and trastuzumab (in vivo), subcutaneous tumor in nude mice; design: species or system nude mouse (BALB/cAJcl-nu/nu); conditions: for T/C (%): Day 15; for BWC (%) Day 15 Mean: mouse, in vivo, po
Description: Human stomach cancer cells 4-1st were obtained as fragment tumor from the Central Institute for Experimental Animals. Tumor was excised approximately one month after subcutaneous transplantation and passage in a nude mouse (BALB/cAJcl-nu/nu, CLEA Japan, Inc.), and prepared into a fragment of approximately 2 mm square. A transplantation needle was packed with one fragment and subcutaneously inserted from around the right most distal rib of a nude mouse. After entrance to the right back, the inner cylinder was pushed to eject and transplant the tumor. Electronic calipers were used in tumor size measurement, and the major axis and the minor axis of the tumor of each mouse were measured by sandwiching the tumor between the measuring surfaces of the electronic calipers (Days 0, 4, 8, 11 and 15). A tumor volume (TV) was calculated from the major axis and the minor axis. A relative tumor volume (RTV) and a rate of change in relative tumor volume (T/C) were calculated from the calculated tumor volume. TV, RTV, and T/C were calculated according to the following expressions. Tumor volume TV (mm^3)=(Major axis, mm)×(Minor axis, mm)×(Minor axis, mm)/2 Relative tumor volume RTV=(TV on the day of measurement)/(TV on the day of grouping) Rate of change in relative tumor volume T/C (%)=(Average RTV of an administration group)/(Average RTV of a control group)×100
An electronic balance for animals was used in body weight measurement. A rate of change in body weight on day n (BWCn) was calculated from the body weight on day n (BWn) according to the following expression. Rate of change in body weight BWCn (%)=(BWn−BW0)/BW0×100
Nude mice whose TV reached 100 to 300 mm^3 were selected, and six animals were assigned to each group by the equal number method (MiSTAT (ver. 2.0)) such that average TV was equalized among groups.
The presence or absence of an effect of combined use and toxicity were determined from tumor sizes and body weights on the day of grouping (Day 0) and the day of evaluation (Day 15). During the administration period, the body weights were measured every day for the calculation of the amount of a dosing solution.

[2] = system: human stomach cancer cell line NCI-N87; assay: Combination of Compound 1 and capecitabine (in vivo), subcutaneous tumor in nude mice; design: species or system nude mouse (BALB/cAJcl-nu/nu); conditions: for T/C (%): Day 15
Description: A human stomach cancer cell line NCI-N87 was obtained from American Type Culture Collection (ATCC). The cell line was cultured at 37° C. in a 5% CO2 incubator using RPMI-1640 (containing 4.5 g/L glucose, 10 mM HEPES, and 1 mM sodium pyruvate) (Wako Pure Chemical Industries, Ltd.) medium containing 10% fetal bovine serum (FBS).
The NCI-N87 cells were resuspended at a concentration of 8×10^7 cells/mL in PBS.
The cell suspension was subcutaneously transplanted in an amount of 8×10^6 cells/0.1 mL to the right chest of a 6-week-old nude mouse (BALB/cAJcl-nu/nu, CLEA Japan, Inc.) using a 1 mL syringe for tuberculin and a 25 G injection needle.
Electronic calipers were used in tumor size measurement.

[3] = system: SK-BR-3 (human breast cancer); assay: Combination of Compound 1 and other antitumor agents (in vitro), CellTiter-Glo, median effect method; type: cell-based
Description: (§1) The supplier of each reagent, the suppliers of tumor cell lines, the media used, and the numbers of cells to be inoculated are shown in the tables below.
(§2) The cells were inoculated at 20 μL/well to a 384-well culture plate (Corning Inc.). The plate inoculated with the cells were cultured in an incubator set to 37° C. and 5% CO2. On the day following inoculation, each of mixed solutions of Compound 1 and each other antitumor agent at varying combinations of concentrations was added to the cells. Specifically, 8 serial dilutions (including (0 nM)) of Compound 1 and 10 serial dilutions (including (0 nM)) of the other antitumor agent were prepared using Leibovitz's L-15 medium containing 10% FBS, or ATCC formulated RPMI-1640 medium containing 10% FBS. Drug solutions in which equal amounts of the respective serial dilutions of the compounds were dispensed were mixed at a ratio of 1:1 to prepare a total of 80 mixed drug solutions including every combination. Each of these mixed drug solutions was added at 5 μL/well (N=4) to the plate, followed by further culture for 3 days under conditions of 37° C. and 5% CO2.
(§3) Three days later, CellTiter-Glo™ 2.0 Reagent (Promega Corporation) was added thereto at 25 μL/well, and chemiluminescence was measured using a plate reader (EnSpire® Multimode Plate Reader, PerkinElmer Japan Co., Ltd.).
(§4) The enhancement of an effect by combined use of the drugs was evaluated according to a method known in the art (a method described in Trends Pharmacol. Sci., 4, 450-454, 1983 or Pharmacol Rev., 58 (3), 621-81, 2006).
(§5) An average value from 4 wells of each combination was calculated from the obtained data, and a cell survival rate normalized against a control supplemented with a medium containing a vehicle was calculated. A Fa (fraction of affect) value was calculated by subtracting the cell survival rate from 1. Median effect analysis software CalcuSyn 2.0 (CalcuSyn, Inc.) for calculation by the median effect method was used in the calculation of CI.
(§6) As for the combinations of the concentrations of both the drugs for calculating CI, a Fa value closer to 1 presumably means a concentration range in which one of the drugs had too strong an effect, and a Fa value closer to 0 presumably means a concentration range in which any of the drugs had too weak an effect. Since these concentration ranges were not appropriate for the discussion of a synergistic effect, combinations that satisfied 0.2 S Fa 0.8 were extracted from the combinations of the respective concentrations of Compound 1 and the other antitumor agent on the basis of the calculated Fa value.
(§7) An effect of combined use was determined as shown in the table below (Pharmacol Rev., 58 (3), p. 621-81, 2006).

[4] = system: KPL-4 (human breast cancer); assay: as above; type: cell-based
Description: as §1, §2, §3, §4, §5, §6, §7

[5] = Compound 1 7.5 mg/kg/day p.o. Days 1-14
[6] = Compound 1 15 mg/kg/day p.o. Days 1-14
[7] = Compound 1 30 mg/kg/day p.o. Days 1-14
[8] = Compound 1 0.412 nM + Cisplatin 6185 nM, ratio 1:15030, SK-BR-3
[9] = Compound 1 1.24 nM + Cisplatin 6185 nM, ratio 1:5010, SK-BR-3
[10] = Compound 1 3.70 nM + Cisplatin 687 nM, ratio 1:186, SK-BR-3
[11] = Compound 1 3.70 nM + Cisplatin 2062 nM, ratio 1:557, SK-BR-3
[12] = Compound 1 3.70 nM + Cisplatin 6185 nM, ratio 1:1670, SK-BR-3
[13] = Compound 1 68.6 nM + Paclitaxel 0.0229 nM, ratio 1:0.00033, KPL-4
[14] = Compound 1 68.6 nM + Paclitaxel […], ratio 1:0.00011, KPL-4
[15] = Compound 1 206 nM + Paclitaxel 0.617 nM, ratio 1:0.0030, KPL-4
[16] = Compound 1 206 nM + Paclitaxel 1.85 nM, ratio 1:0.0090, KPL-4
[17] = Compound 1 617 nM + Paclitaxel 1.85 nM, ratio 1:0.0030, KPL-4
[18] = Compound 1 1852 nM + Paclitaxel 1.85 nM, ratio 1:0.0010, KPL-4
[19] = Compound 1 5556 nM + Paclitaxel 1.85 nM, ratio 1:0.00033, KPL-4
[20] = Compound 1 5556 nM + Paclitaxel 5.56 nM, ratio 1:0.0010, KPL-4
[21] = Compound 1 16667 nM + Paclitaxel 1.85 nM, ratio 1:0.00011, KPL-4
[22] = Compound 1 50000 nM + Paclitaxel 1.85 nM, ratio 1:0.000037, KPL-4

## C=CC(=O)N1CCC[C@@H](n2nc(C(=O)Nc3ccc(CC(=O)N(C)C)c(C)c3C)c3c(N)ncnc32)C1 [Compound 1, (R)-1-(1-acryloylpiperidin-3-yl)-4-amino-N-(4-(2-(dimethylamino)-2-oxoethyl)-2,3-dimethylphenyl)-1H-pyrazolo[3,4-d]pyrimidine-3-carboxamide]
[1]; [5]
  RTV Day 15 Mean + SD: 6.55 ± 0.37
  T/C (%): 49.0%
[1]; [6]
  RTV Day 15 Mean + SD: 3.77 ± 0.32
  T/C (%): 28.2%
[1]; 7.5 mg/kg/day
  BWC (%) Day 15 Mean: 5.06%
[1]; 15 mg/kg/day
  BWC (%) Day 15 Mean: 0.82%
[2]; [6]
  BWC (%) Day 15 Mean: 8.35%
  RTV Day 15 Mean ± SD: 1.69 ± 0.39
  T/C (%): 40.8%
[2]; [7]
  BWC (%) Day 15 Mean: 6.43%
  RTV Day 15 Mean ± SD: 0.67 ± 0.15
  T/C (%): 16.3%
[3]; [8]
  CI: 0.86
  Fa: 0.50
[3]; [9]
  CI: 0.84
  Fa: 0.55
[3]; [10]
  CI: 0.78
  Fa: 0.22
[3]; [11]
  CI: 0.79
  Fa: 0.37
[3]; [12]
  CI: 0.63
  Fa: 0.65
[4]; [13]
  CI: 0.03
  Fa: 0.44
[4]; [14]
  CI: 0.15
  Fa: 0.32
[4]; [15]
  CI: 0.50
  Fa: 0.33
[4]; [16]
  CI: 0.30
  Fa: 0.52
[4]; [17]
  CI: 0.31
  Fa: 0.54
[4]; [18]
  CI: 0.36
  Fa: 0.55
[4]; [19]
  CI: 0.48
  Fa: 0.57
[4]; [20]
  CI: 0.44
  Fa: 0.78
[4]; [21]
  CI: 0.38
  Fa: 0.66
[4]; [22]
  CI: 0.13
  Fa: 0.86
